The numbers were not newly measured in patent publication US5929038A, “Pharmaceutical preparations which inhibit hepatitis B virus (HBV) replication” (Choongwae Pharmaceutical Co., Ltd., priority 1992, dated 1999), which cites them from elsewhere.

The structures appear in SMILES notation.

Data set [1] deals with beagle dogs intoxicated by toxic mushroom extracts. As to conditions: cited from earlier work.
Data set [2] relates to toxic Amanita mushrooms' poisoning. To be noted: in vivo; cited from earlier work.

For `OCC1=CC(O)C2C=COC(O[C@@H]3O[C@H](CO)[C@@H](O)[C@H](O)[C@H]3O)C12` (stereo partly drawn) [Aucubin, 1,4,5, 7α-tetrahydro-5-hydroxy-17-(hydroxymethyl)cyclopenta[c]pyran-1-yl-β-D-glucopyranose], the antidotal activity entry in data set [1] is “potent antidotal activity”. For the same compound, the Detoxification activity result in data set [2] is on record as “detoxifies toxic Amanita mushrooms' poisoning”.
